Test results: publication PMC12131194, “Rational design, synthesis, and evaluation of novel polypharmacological compounds targeting NaV1.5, KV1.5, and K2P channels for atrial fibrillation” (The Journal of Biological Chemistry, 2025)

Molecular target: T1, h NaV1.5 (Homo sapiens, UniProt Q14524, R1027Q)
T1 construct: expressed in transfected cells; host or cells: Xenopus laevis oocytes injected with cRNA
Experiment: TEVC recordings in X. laevis oocytes, NaV1.5
Format: cell-based
Conditions: for Ionic current block INa: from inhibition curves, used for simulation
Method: To obtain X. laevis oocytes, the frogs were anesthetized with 2 g/L of tricaine methanesulfonate, and the ovarian lobes were mechanically separated with forceps. The oocytes were incubated for 120 min in an OR2 solution containing in mM: NaCl 82.5, KCl 2, MgCl2 1, HEPES 5 (pH 7.5) supplemented with 2 mg/ml of collagenase II (Sigma) to remove residual connective tissue and obtain individual oocytes. Subsequently, the oocytes were washed with a ND96 solution containing in mM: NaCl 96, KCl 2, CaCl2 1.8, MgCl2 1, HEPES 5 (pH 7.5, adjusted with NaOH) and stored at 18 °C in ND96 solution supplemented with 1 ml of gentamicin (50 mg/L), sodium pyruvate (275 mg/L) and (90 mg/L) theophylline (inhibits further oocyte maturation) before and after RNA injection.
In order to overexpress the channel in the oocyte, each of the channels to be measured was subcloned (complementary DNA (cDNA); human TASK-1 (KCNK3, NM_002246), h KV1.5 (KCNA5, NM_002234), h NaV1.5 (hH1, M77235), TASK-4/TALK-2 (KCNK17, NM_AF358910), TREK-1 (KCNK2, AF004711) and Kir2.1 (KCNJ2, NM_017296) into pSGEM, pBF1 or pSP64 expression vector, and the cDNA was linearized with NheI or MluI. Complementary RNA (cRNA) was synthesized with the mMESSAGE mMACHINE-Kit (Ambion). The quality of the cRNA was tested on an agarose gel by electrophoresis. cRNA was quantified using a UV-Vis spectrophotometer (NanoDrop 2000). Subsequently, the channel was transfected in the oocytes in stages V and VI, for which […] (TASK-1, KV1.5 or TREK-1), 10 ng (NaV1.5 or TASK-4) o 2.5 ng (Kir2.1) per oocyte of cRNA was injected with a NanojectII microinjector (Drummond Scientific). The oocytes were stored in 24-well plates for 24 to 48 h at 18 °C. After this time, the overexpression of each channel was monitored through electrophysiology.
Two-electrode voltage clamp measurements were performed 24 or 48 h after cRNA injection at room temperature (20–22 °C) in ND96 recording solution with a TurboTEC-10CD (npi) amplifier and a Digidata 1550B (for TASK-1 and KV1.5) and 1440A (for NaV1.5) A/D converter from Axon Instruments. Micropipettes were fabricated from GB 150 TF-8P borosilicate glass capillaries (Science Products) elongated in a DMZ-Universal Puller (Zeitz, Germany). […] ND96 was used as bath solution. Data acquisition was performed using Clampex 10 software (Axon Instruments), and data were analyzed with ClampFit 10 (Axon Instruments) and Origin 7 (Origin Lab Corporation).
For compound inhibition testing, from a holding potential of −80 mV a first test pulse to 0 mV of 1 s duration was followed by a repolarization step at −80 mV for 1 s, directly followed by another 1 s test pulse at +40 mV. The sweep time interval was 10 s for KV1.5 and TASK-1 channels. For the NaV1.5 channel, the block was analyzed with voltage steps from a holding potential of −80 mV. A first depolarizing pulse to −30 mV of 50 ms duration was applied, followed by a 5 ms step to −80 mV. The sweep time interval was 5 s. The compounds were applied at different concentrations to determine the half-maximal inhibitory concentration (IC50), using a fit to the Hill equation.
To test for a putative voltage-dependence of the block by the compound 6f in KV1.5, a 1.5 s voltage step protocol from −80 to +80 mV with +20 mV increments was used. The holding potential was −80 mV and the sweep time interval was 10 s. Currents were analyzed at the end of the voltage pulse. For TASK-1, voltage-dependence of block was probed using a high-potassium solution (KD96) containing in mM: KCl 96, NaCl 2, CaCl2 1.8, MgCl2 1, HEPES 5, (pH 7.5, adjusted with KOH). From a holding potential of 0 mV, voltage was stepped from −80 mV to +80 mV for 1.5 s in +20 mV steps every 10 s. To determine the current-voltage relationship of the NaV1.5 channel, the voltage was stepped for 50 ms from a holding potential of −80 mV to −70 mV to +80 mV in +10 mV increments every 5 s. The peak currents were subsequently plotted against the respective applied voltages.

T1 sequence (Q14524 whole entry R1027Q): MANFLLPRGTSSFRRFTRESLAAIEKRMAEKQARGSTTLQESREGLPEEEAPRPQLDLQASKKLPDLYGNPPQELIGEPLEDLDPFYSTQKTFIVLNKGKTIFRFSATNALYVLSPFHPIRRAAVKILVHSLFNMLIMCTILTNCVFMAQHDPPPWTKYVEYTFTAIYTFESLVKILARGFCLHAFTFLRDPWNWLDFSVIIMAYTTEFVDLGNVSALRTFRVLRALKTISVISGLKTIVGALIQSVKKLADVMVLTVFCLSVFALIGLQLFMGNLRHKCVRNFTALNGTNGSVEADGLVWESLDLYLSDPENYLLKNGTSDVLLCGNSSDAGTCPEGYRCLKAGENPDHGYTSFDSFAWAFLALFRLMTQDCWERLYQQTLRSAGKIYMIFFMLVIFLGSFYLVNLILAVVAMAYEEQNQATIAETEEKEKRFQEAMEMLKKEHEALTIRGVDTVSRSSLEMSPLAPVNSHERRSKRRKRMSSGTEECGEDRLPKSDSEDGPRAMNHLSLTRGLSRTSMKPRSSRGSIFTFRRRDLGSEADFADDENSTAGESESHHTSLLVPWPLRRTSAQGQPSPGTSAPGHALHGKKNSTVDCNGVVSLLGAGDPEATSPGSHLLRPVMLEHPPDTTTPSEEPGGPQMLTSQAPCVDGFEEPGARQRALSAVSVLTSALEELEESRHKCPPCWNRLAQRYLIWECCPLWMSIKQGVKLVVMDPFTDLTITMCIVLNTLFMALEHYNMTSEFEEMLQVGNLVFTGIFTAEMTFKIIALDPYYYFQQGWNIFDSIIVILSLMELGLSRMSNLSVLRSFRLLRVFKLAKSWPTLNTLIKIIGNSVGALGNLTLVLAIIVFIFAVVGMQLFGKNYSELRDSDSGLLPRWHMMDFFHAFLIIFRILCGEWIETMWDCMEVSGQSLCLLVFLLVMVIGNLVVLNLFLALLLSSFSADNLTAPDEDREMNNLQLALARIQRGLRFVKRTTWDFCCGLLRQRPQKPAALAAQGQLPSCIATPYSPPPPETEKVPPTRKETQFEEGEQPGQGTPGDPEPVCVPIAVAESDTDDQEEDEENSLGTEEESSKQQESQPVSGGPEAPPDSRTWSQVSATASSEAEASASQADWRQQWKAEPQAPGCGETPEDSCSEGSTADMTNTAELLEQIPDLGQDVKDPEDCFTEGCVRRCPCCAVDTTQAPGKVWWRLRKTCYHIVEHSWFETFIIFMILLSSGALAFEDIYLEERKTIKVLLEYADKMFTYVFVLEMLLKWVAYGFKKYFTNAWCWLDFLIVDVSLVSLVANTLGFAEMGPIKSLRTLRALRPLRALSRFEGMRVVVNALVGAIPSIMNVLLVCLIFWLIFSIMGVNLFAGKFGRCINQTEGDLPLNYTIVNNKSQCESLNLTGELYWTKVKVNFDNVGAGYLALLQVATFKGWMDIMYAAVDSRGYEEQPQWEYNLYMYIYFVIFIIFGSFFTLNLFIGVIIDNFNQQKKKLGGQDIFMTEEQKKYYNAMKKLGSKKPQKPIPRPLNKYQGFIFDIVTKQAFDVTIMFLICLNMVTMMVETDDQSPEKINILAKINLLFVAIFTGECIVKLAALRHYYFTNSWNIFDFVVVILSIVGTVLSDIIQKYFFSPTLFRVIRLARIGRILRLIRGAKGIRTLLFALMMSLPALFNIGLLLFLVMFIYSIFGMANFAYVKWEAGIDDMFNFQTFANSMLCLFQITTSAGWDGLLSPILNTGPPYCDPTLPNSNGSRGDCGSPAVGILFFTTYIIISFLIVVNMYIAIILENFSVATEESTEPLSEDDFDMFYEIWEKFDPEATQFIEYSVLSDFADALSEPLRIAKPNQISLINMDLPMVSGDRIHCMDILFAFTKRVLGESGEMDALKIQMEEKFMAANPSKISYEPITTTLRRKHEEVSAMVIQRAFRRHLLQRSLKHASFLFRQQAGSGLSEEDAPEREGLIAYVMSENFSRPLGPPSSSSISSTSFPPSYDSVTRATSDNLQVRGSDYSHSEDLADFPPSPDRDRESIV

CCCCN(CCCC)CC(=O)Nc1ccc(OC)cc1OC [Compound 6f, 2-(dibutylamine)-N-(2,4-dimethoxiphenyl)acetamide]
Ionic current block INa (1 μM): 16% | Ionic current block INa (10 μM): 30% | Ionic current block INa (100 μM): 65% | inhibition at 100 µM (100 μM, −30 mV, oocytes, mean ± SD): 62.4 ± 20.6% | Voltage-dependence of block of NaV1.5 (oocytes, 100 μM): small but significant variations | Frequency-dependent inhibition of NaV1.5 (oocytes, 100 μM, 1, 2 and 3 Hz): did not observe a significant frequency-dependent inhibition
